The source of these data is patent publication US7989587B2, “SSX-2 peptides presented by HLA class II molecules” (Ludwig Institute for Cancer Research Ltd., priority 1999, dated 2011).

For the experiment, the system named is SSX-2 specific CD4^+ T cells. Description: Intracellular IFN-γ staining of CD4+ T cells from patient LAU672 after stimulation with SSX-2 peptide submixtures or single peptides. It counts as cell-based, human. The note with it: representative CD4+ T cell clone, FIG. 2A. The protocol: Generation of SSX-2 specific CD4^+ T cells. In vitro sensitization of CD4^+ T cells was carried out as described previously for CD8^+ T cells. Briefly, 1 to 2×10^6 CD4^+ T cells highly enriched from peripheral blood mononuclear cells (PBMC) by magnetic cell sorting using a miniMACS device (Miltenyi Biotec, Sunnyvale, Calif., USA) were stimulated with a mixture containing peptides spanning the entire SSX-2 protein sequence (Ayyoub et al, J Immunol 2002. 32:2292-2299) (2 μM each) in the presence of irradiated autologous cells from the CD4^− fraction in CTL medium containing rhIL-2 (10 U/ml) and IL-7 ([…]). The enriched CD4^+ T cells were cultured 2-3 weeks prior to being tested. CD4^+ T cells secreting cytokines in response to peptide stimulation were isolated by cytokine guided flow cytometry cell sorting using the cytokine secretion detection kit (Miltenyi Biotec) and cloned by limiting dilution culture in the presence of PHA (Sigma), allogenic irradiated PBMC and rhIL-2 as described (Valmori et al., 2001, Cancer Res. 61:501-512). Clones were subsequently expanded by periodic (3-4 weeks) stimulation under the same conditions.
As recombinant SSX-2 protein became available, we initiated a study to identify CD4^+ T cell epitopes. To that purpose, we prepared monocyte-derived dendritic cells (DC) from patient LAU672 by isolating CD 14+ monocytes from PBMC by magnetic cell sorting. The obtained population (containing >95% CD14^+ cells) was cultured in CTL medium containing 1,000 U/ml of rhGM-CSF and 1,000 U/ml of rhIL-4 during 6 days. At the end of the culture period, DC were incubated with recombinant SSX-2 protein for 12 hours and used to stimulate autologous CD4^+ T cells isolated from PBMC by magnetic cell sorting.
Two weeks after stimulation, culture aliquots were tested using either a pool containing all SSX-2 overlapping peptides or submixtures, each composed of 3 peptides (P1-3, P4-6 etc., FIG. 1). […]
The presence of specific CD4^+ T cells was monitored by intracellular staining with INF-γ specific antibodies (FIG. 1A). […]

Turning to “WEKMKASEKIFYVYMKRKYEAM (SSX-2 peptide) [SSX-2 37-58]”, the “reactivity to single peptides in the submixture P4-6” value was “active peptide”.
